Experimental data as given in ChEMBL document CHEMBL1149707, “Structure-activity relationship studies of carboxamido-biaryl ethers as opioid receptor antagonists (OpRAs). Part 1” (Bioorg Med Chem Lett, 2007).

Legend:
[1] = target: T1, Delta-type opioid receptor (Homo sapiens, UniProt P41143); test: Displacement of [3H]bremazocine from human delta opioid receptor expressed in CHO cells in presence of high sodium by SPA; assay type: cell-based
Mu-type opioid receptor [2] = target: T2, Mu-type opioid receptor (Homo sapiens, UniProt P35372); test: Displacement of [3H]diprenorphine from human mu opioid receptor expressed in CHO cells in presence of high sodium by SPA; assay type: cell-based
T2 sequence (P35372 whole entry): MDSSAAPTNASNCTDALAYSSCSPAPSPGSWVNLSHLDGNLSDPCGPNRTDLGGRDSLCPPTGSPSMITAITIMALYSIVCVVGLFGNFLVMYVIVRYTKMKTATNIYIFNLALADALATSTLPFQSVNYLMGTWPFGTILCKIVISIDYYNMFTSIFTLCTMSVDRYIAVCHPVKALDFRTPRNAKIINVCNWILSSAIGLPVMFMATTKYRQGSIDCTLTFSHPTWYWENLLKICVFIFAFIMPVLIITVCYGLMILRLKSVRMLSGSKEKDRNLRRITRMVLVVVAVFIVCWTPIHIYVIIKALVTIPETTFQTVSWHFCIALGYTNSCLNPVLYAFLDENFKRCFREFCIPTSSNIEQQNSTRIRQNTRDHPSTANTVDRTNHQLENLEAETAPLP

[3] = target: T3, Kappa-type opioid receptor (Homo sapiens, UniProt P41145); test: Displacement of [3H]diprenorphine from human kappa opioid receptor expressed in CHO cells in presence of high sodium by SPA; assay type: cell-based
T3 sequence (P41145 whole entry): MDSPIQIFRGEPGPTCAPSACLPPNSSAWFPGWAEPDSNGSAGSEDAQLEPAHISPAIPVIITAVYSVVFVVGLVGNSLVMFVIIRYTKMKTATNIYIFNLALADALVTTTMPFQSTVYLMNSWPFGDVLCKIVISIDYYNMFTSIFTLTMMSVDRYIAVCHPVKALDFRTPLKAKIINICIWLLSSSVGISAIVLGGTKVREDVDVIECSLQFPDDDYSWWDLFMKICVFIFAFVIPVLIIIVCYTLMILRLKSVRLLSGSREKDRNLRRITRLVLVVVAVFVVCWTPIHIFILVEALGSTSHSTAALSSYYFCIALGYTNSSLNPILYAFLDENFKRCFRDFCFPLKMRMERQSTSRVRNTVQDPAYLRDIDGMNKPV

Mu-type opioid receptor [4] = target: T2, Mu-type opioid receptor; test: Antagonist activity at human mu opioid receptor expressed in CHO cells by [35S]GTP-gamma-S binding assay; assay type: functional, cell-based
[5] = target: T3, Kappa-type opioid receptor; test: Antagonist activity at human kappa opioid receptor expressed in CHO cells by [35S]GTP-gamma-S binding assay; assay type: functional, cell-based
[6] = target: T1, Delta-type opioid receptor; test: Antagonist activity at human delta opioid receptor expressed in CHO cells by [35S]GTP-gamma-S binding assay; assay type: functional, cell-based

T1 sequence (P41143 whole entry): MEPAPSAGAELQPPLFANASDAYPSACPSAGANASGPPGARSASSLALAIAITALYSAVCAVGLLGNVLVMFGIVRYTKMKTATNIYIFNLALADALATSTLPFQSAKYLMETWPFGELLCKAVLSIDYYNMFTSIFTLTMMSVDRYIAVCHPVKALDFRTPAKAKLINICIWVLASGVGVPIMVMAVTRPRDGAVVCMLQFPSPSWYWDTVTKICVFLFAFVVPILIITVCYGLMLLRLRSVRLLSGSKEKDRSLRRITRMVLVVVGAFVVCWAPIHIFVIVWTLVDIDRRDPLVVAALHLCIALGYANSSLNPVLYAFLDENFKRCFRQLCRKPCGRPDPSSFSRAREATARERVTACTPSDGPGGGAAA

Ki [1] [nM] | Ki (Mu-type opioid receptor [2]) [nM] | Ki [3] [nM] | Ki (Mu-type opioid receptor [4]) [nM] | Ki [5] [nM] | Kb [6] [nM] | Structure (SMILES)
– | – | – | > 1000 | > 1000 | > 1000 | NC(=O)c1ccc(Oc2ccc(NCCCc3ccccc3)cc2)nc1
2410 | 52.3 | > 5000 | – | – | – | CC(C)NC(=O)c1ccc(Oc2ccc(CNCCc3ccccc3)cc2)nc1
– | – | – | 22.3 | 45.8 | 496 | NC(=O)c1ccc(Oc2ccc(CCCNCc3ccccc3)cc2)nc1
> 5000 | > 2500 | > 5000 | – | – | – | NC(=O)c1ccnc(Oc2ccc(CCNCc3ccccc3)cc2)c1
– | – | – | 4.09 | 2.47 | 54.1 | NC(=O)c1ccc(Oc2ccc(CNCc3ccccc3)cc2)nc1
674 | 57.1 | 2810 | – | – | – | CCNC(=O)c1ccc(Oc2ccc(CNCCc3ccccc3)cc2)nc1
215 | 20.6 | 1150 | – | – | – | N=C(N)c1ccc(Oc2ccc(CNCCc3ccccc3)cc2)nc1
– | – | – | > 1000 | > 1000 | > 1000 | NC(=O)c1ccc(Oc2ccc(CCCNc3ccccc3)cc2)nc1
3460 | 235 | > 5000 | – | – | – | CNC(=N)c1ccc(Oc2ccc(CNCCc3ccccc3)cc2)nc1
> 5000 | > 2500 | > 5000 | – | – | – | O=C(O)c1ccc(Oc2ccc(CCNCc3ccccc3)cc2)nc1
70.2 | 7.44 | 136 | 2.25 | 18.4 | 23.1 | NC(=O)c1ccc(Oc2ccc(CCNCc3ccccc3)cc2)nc1

The remaining lines, values behind:

Structure (SMILES) | Ki [1] [nM] | Ki (Mu-type opioid receptor [2]) [nM] | Ki [3] [nM] | Ki (Mu-type opioid receptor [4]) [nM] | Ki [5] [nM] | Kb [6] [nM]
NS(=O)(=O)c1ccc(Oc2ccc(CCNCc3ccccc3)cc2)cc1 | > 5000 | > 2500 | > 5000 | – | – | –
N#Cc1ccc(Oc2ccc(CCNCc3ccccc3)cc2)nc1 | > 5000 | 1080 | > 5000 | – | – | –
NC(=O)c1ccc(Oc2ccc(CNCCc3ccccc3)cc2)nc1 | – | 0.17 | – | 0.07 | – | –
NC(=O)c1ccc(Oc2ccc(CCNCCc3ccccc3)cc2)nc1 | – | – | – | 16.6 | 23.3 | 128
NC(=O)c1ccc(Oc2ccc(CCNCCCc3ccccc3)cc2)nc1 | – | – | – | 18.5 | 24.1 | 212
NC(=O)c1cccc(Oc2ccc(CCNCc3ccccc3)cc2)n1 | > 5000 | 643 | > 5000 | – | – | –
NC(=O)c1ccc(Oc2ccc(CNCCc3ccccc3)cc2)cc1 | – | – | 15 | – | 1.22 | –
O=C(c1ccc(Oc2ccc(CNCCc3ccccc3)cc2)nc1)N1CCCCC1 | > 5000 | 389 | > 5000 | – | – | –
NCc1ccc(Oc2ccc(CCNCc3ccccc3)cc2)nc1 | > 5000 | > 2500 | > 5000 | – | – | –
NC(=O)c1cccnc1Oc1ccc(CCNCc2ccccc2)cc1 | > 5000 | > 2500 | > 5000 | – | – | –
CNC(=O)c1ccc(Oc2ccc(CNCCc3ccccc3)cc2)nc1 | 718 | 52.3 | > 5000 | – | – | –
NC(=O)c1ccc(Oc2ccc(CNCCc3ccccc3)cc2)cn1 | 8.54 | 1.77 | 69.3 | 0.44 | 9.6 | 2.86
C[C@H]1CN(CC[C@H](O)C2CCCCC2)CC[C@@]1(C)c1cccc(O)c1 | 4.82 | – | – | – | – | 1.19
